{
  "source": "patent US20240252586A1",
  "about": "“ENGINEERED ANTIMICROBIAL PEPTIDES AND USAGE THEREOF” (priority 2021, published 2024)",
  "key": {"S. aureus": {"system": "S. aureus", "assay": "Broth microdilution MIC, PJI isolates (Example 1)", "assay_type": "cell-based, Staphylococcus aureus", "conditions": "RPMI; N = 3", "procedure": "Imipenem, levofloxacin, tigecycline, linezolid, vancomycin, oxacillin, ceftazidime, colistin, and amikacin were tested as comparators. Testing was conducted in accordance with guidelines from the Clinical and Laboratory Standards Institute (CLSI; M7 and M100). Test organisms comprised reference strains from the American Type Culture Collection, the Centers for Disease Control Antibiotic Reference Bank and clinical isolates from the Micromyx repository."}, "E. Coli ATCC 25922": {"system": "E. Coli ATCC 25922", "procedure": "(§1) SEQ ID NO: 1 stocks were made at 5.12 mg/mL in water adjusted to pH of 5.0 with 1% glacial acetic acid.\n(§2) The test organisms (Table 7) consisted of clinical isolates from the Micromyx (MMX) repository, a reference isolate from the American Type Culture Collection (ATCC, Manassas, VA) and the Centers for Disease Control (CDC, Atlanta GA). Upon initial receipt, the isolates were streaked under suitable conditions onto agar medium appropriate to each organism. The organisms were incubated for 18-24 hr at 35° C. in ambient atmosphere. Colonies harvested from these growth plates were resuspended in the appropriate medium containing a cryoprotectant. Aliquots of each suspension were then stored frozen at −80° C. Prior to testing, all organisms were cultured onto trypticase soy agar containing 5% sheep blood. The agar plates were incubated as described above.\n(§3) The Test media used for MIC and FIC were testing were cation-adjusted Mueller-Hinton broth (CAMHB) and Roswell Park Memorial Institute (RPMI-1640), buffered with 3-(N-morpholino)propanesulfonic acid (MOPS). Each test media was supplemented with 0.002% Tween-80 (P-80) prior to testing.\n(§4) MIC assay plates were prepared for broth microdilution in accordance with guidelines from the Clinical and Laboratory Standards Institute (CLSI); automated liquid handlers (Biomek 3000 and Biomek FX) and multi-channel pipettes were used to conduct serial dilutions and liquid transfers. MIC assay plates were prepared using a 96-well, deep-well microdilution plate that mimicked the layout of the daughter plates.\n(§5) For the mother plate, wells across the standard 96-well microdilution plate were filled with 150 μL of sterile saline 0.002% P-80 in columns 2 through 12. […] The Biomek 300 was used to make eleven 2-fold serial dilutions horizontally across each row of the plate from columns 2 through 11. The Biomek FX was then used to transfer 5 μL of the SEQ ID NO: 1 and saline 0.002% P-80 to the daughter plates.\n(§6) A standardized inoculum of each organism was prepared per CLSI methods. Suspensions were prepared to equal a 0.5 McFarland standard followed by a 1:10 dilution into test medium. The inocula were dispensed into sterile reservoirs divided by length and the Biomek 3000 was used to inoculate the plates. Daughter plates were placed on the Biomek 3000 work surface in reverse orientation so that inoculation took place from low to high drug concentration. The Biomek 3000 delivered 10 μL of the diluted suspension into each well. These inoculations yielded a final cell concentration in the daughter plates of approximately 5×10^5 CFU/mL in each well. Plates were incubated at 35° C. for 16-20 hr. The microplates were viewed from the bottom using a plate viewer and the MIC was recorded as the lowest concentration of drug that inhibited visible growth of the organism."}, "E. Coli ATCC BAA-2469": {"system": "E. Coli ATCC BAA-2469", "procedure": "as §1, §2, §3, §4, §5, §6"}, "E. Coli CDC 0451": {"system": "E. Coli CDC 0451", "procedure": "as §1, §2, §3, §4, §5, §6"}, "S. aureus ATCC 29213": {"system": "S. aureus ATCC 29213", "procedure": "as §1, §2, §3, §4, §5, §6"}, "S. aureus NRS 384": {"system": "S. aureus NRS 384", "procedure": "as §1, §2, §3, §4, §5, §6"}, "S. epidermidis MMX 8655": {"system": "S. epidermidis MMX 8655", "procedure": "as §1, §2, §3, §4, §5, §6"}, "P. aeruginosa CDC 0515": {"system": "P. aeruginosa CDC 0515", "conditions": "RPMI", "procedure": "FIC test ranges were set based on broth microdilution MIC test data. FIC assay plates were prepared in accordance with CLSI guidelines for broth microdilution susceptibility testing; automated liquid handlers, and multi-channel pipettes were used to conduct serial dilutions and liquid transfers.\nSEQ ID NO: 1 was tested at two concentration ranges depending on the test media. All organisms tested in CAMHB 0.002% P-80 were tested from 0.015-16 μg/mL; when tested in RPMI 0.002% P-80, the range tested was 0.004-4 μg/mL. For each SEQ ID NO: 1 mother, wells across the standard 96-well microdilution plate were filled with 150 μL of sterile saline 0.002% P-80 in columns 2 through 12. A 300 μL aliquot at 20× the highest final concentration of each dilution range to be tested, was added to each well in column 1 of the plate. The Biomek 3000 was used to make eleven 2-fold serial dilutions horizontally across each row of the plate columns 2 through 11.\nThe daughter plates were then completed using the Biomek FX to transfer 5 μL of drug solution from each well of the SEQ ID NO: 1 mother plates to the corresponding well in each daughter plate in a single step. […] The preparation of the daughter plates was performed for each media type; two times in total as all organisms were tested in both media types.\nA standard inoculum for each organism was prepared per CLSI method. Colonies were picked up from the primary plate and a suspension was prepared equal to 0.5 McFarland turbidity standard. The suspensions were additionally diluted 1:10 in the appropriate broth. A 10 μL standardized inoculum was delivered into each well using the Biomek 3000 from low to high concentration. These inoculations yielded a final cell concentration in the daughter plates of approximately 5×10^5 CFU/mL in each well. […] Exemplary checkboard panels are seen in Table 5 and Table 6. Plates were incubated at 35° C. for 16-20 hr.\nThe MIC of the horizontal agent (row H) and the MIC of the vertical agent (column 12) were recorded and the wells of the growth-no growth interface for wells containing agents in combination at varying ratios were recorded by row. […] Pinpoint trailing was not interpreted as growth.\nFor each relevant row of the panel, the FICI was calculated as:\nFICdrug A/MICdrug A+FICdrug B/MICdrug=FICI\nMean FICI values were determined for each combination tested by averaging the FICI values as observed on each row of the checkerboard assay (See Table 9, e.g., if there were FICI values for B-G, those FICI values were added together and divided by the number of rows the FICI values which in this case is 6 to get the mean FICI value for that combination).\nUsing the criteria described by: Odds FC. 2003. Synergy, antagonism, and what the chequerboard puts between them. J Antimicrob Chemother 52(1):1, the mean FICI for the combination was interpreted as follows: ≤0.5=synergy, >0.5-4=additive/indifferent, and >4=antagonism. […] An interpretation of indifference is consistent with growth inhibition at concentrations at or slightly below/above the MICs of the individual agents alone, resulting in a FICI value of >0.5 but […]."}},
  "note": "Where “and” joins values, the source holds several entries; their conditions need not be identical. Identical values can stand only once. Like-named read-outs stand apart in the source and are kept apart here. Where no end group is shown, it is not given here.",
  "data": [
    {"sequence": "RRWVRRVRRVWRRVVRVVRRWVRR [SEQ ID NO: 1]", "values": [
      {"measurement": "MIC50", "setting": "S. aureus", "value": 0.12, "unit": "µg/mL"},
      {"measurement": "MIC90", "setting": "S. aureus", "value": 0.12, "unit": "µg/mL"},
      {"measurement": "MIC", "setting": "E. Coli ATCC 25922; CAMHB", "value": 4, "unit": "µg/mL"},
      {"measurement": "MIC", "setting": "E. Coli ATCC 25922; RPMI", "value": 0.5, "unit": "µg/mL"},
      {"measurement": "MIC", "setting": "E. Coli ATCC BAA-2469; CAMHB", "value": 4, "unit": "µg/mL"},
      {"measurement": "MIC", "setting": "E. Coli ATCC BAA-2469; RPMI", "value": 0.5, "unit": "µg/mL"},
      {"measurement": "MIC", "setting": "E. Coli CDC 0451; CAMHB", "value": "1 µg/mL and 2 µg/mL"},
      {"measurement": "MIC", "setting": "E. Coli CDC 0451; RPMI", "value": 0.5, "unit": "µg/mL"},
      {"measurement": "MIC", "setting": "S. aureus ATCC 29213; CAMHB", "value": 4, "unit": "µg/mL"},
      {"measurement": "MIC", "setting": "S. aureus ATCC 29213; RPMI", "value": 0.5, "unit": "µg/mL"},
      {"measurement": "MIC", "setting": "S. aureus NRS 384; CAMHB", "value": 4, "unit": "µg/mL"},
      {"measurement": "MIC", "setting": "S. aureus NRS 384; RPMI", "value": 0.5, "unit": "µg/mL"},
      {"measurement": "MIC", "setting": "S. epidermidis MMX 8655; CAMHB", "value": 0.5, "unit": "µg/mL"},
      {"measurement": "MIC", "setting": "S. epidermidis MMX 8655; RPMI", "value": 0.12, "unit": "µg/mL"},
      {"measurement": "MIC", "setting": "S. epidermidis MMX 8655; stated in FIG. 3 legends (time-kill)", "value": 1, "unit": "µg/mL"},
      {"measurement": "FICI", "setting": "P. aeruginosa CDC 0515; checkerboard row A, with Sodium Bicarbonate at 100", "value": 2.5},
      {"measurement": "FICI", "setting": "P. aeruginosa CDC 0515; checkerboard row B, with Sodium Bicarbonate at 50", "value": 2.25},
      {"measurement": "FICI", "setting": "P. aeruginosa CDC 0515; checkerboard row C, with Sodium Bicarbonate at 25", "value": 1.125}
    ]}
  ]
}
